Laboratory results as given in US20230203098A1, “HUMAN TRANSFERRIN RECEPTOR BINDING PEPTIDE” (priority 2020, published 2023).
Where two headings read alike, the source gives them in different places. Blank lines part the entries; values can stand above or below the molecule they belong to. *1 amine or outer side, *2 acyl side, *3 side chain or, on linkers, in order; H or OH if unused. Where a SMILES comes first, the peptide text is derived from it. Bridges are numbered along the chain shown (N, C = ends). [ ]: non-standard residue; d: D form. The star is where a group is joined. X2 = O=C(O)c1cc(C(=O)*)ccc1-c1c2ccc(=O)cc-2oc2cc(O)ccc12; PEG12 = NCCOCCOCCOCCOCCOCCOCCOCCOCCOCCOCCOCCOCCC(=O)O; X5 = O=C([C@H](Cc1cn(CCO)c2ccccc12)N[*:1])[*:2]; NMePhe(3-Cl) = CN[C@@H](Cc1cccc(Cl)c1)C(=O)O; NMeW = CN[C@@H](Cc1c[nH]c2ccccc12)C(=O)O; NMeY = CN[C@@H](Cc1ccc(O)cc1)C(=O)O; NMeH = CN[C@@H](Cc1c[nH]cn1)C(=O)O; Aib = CC(C)(N)C(=O)O

Biological target: transferrin receptor (hTfR) (Homo sapiens, UniProt P02786)
Assay: Intermolecular interaction evaluation test between transferrin receptor (hTfR) and peptide by surface plasmon resonance (SPR)
Format: binding
Summary of the method: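 hTfR captured on Ni-NTA chip then amine-coupled; peptides run single-cycle kinetics at 5–100 nM in 10 mM HEPES pH 8.0, 150 mM NaCl, 0.05% Tween 20, 0.1% BSA, 1.0% DMSO. KD from least-squares curve fitting of sensorgrams.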

[1] = SPR, linker and payload (FITC, VivoTag) conjugates, read-out: KD
[2] = surface plasmon resonance, peptide vs hTfR, read-out: KD value for hTfR by SPR (class symbol)

Chain of transferrin receptor (hTfR) (P02786 whole entry): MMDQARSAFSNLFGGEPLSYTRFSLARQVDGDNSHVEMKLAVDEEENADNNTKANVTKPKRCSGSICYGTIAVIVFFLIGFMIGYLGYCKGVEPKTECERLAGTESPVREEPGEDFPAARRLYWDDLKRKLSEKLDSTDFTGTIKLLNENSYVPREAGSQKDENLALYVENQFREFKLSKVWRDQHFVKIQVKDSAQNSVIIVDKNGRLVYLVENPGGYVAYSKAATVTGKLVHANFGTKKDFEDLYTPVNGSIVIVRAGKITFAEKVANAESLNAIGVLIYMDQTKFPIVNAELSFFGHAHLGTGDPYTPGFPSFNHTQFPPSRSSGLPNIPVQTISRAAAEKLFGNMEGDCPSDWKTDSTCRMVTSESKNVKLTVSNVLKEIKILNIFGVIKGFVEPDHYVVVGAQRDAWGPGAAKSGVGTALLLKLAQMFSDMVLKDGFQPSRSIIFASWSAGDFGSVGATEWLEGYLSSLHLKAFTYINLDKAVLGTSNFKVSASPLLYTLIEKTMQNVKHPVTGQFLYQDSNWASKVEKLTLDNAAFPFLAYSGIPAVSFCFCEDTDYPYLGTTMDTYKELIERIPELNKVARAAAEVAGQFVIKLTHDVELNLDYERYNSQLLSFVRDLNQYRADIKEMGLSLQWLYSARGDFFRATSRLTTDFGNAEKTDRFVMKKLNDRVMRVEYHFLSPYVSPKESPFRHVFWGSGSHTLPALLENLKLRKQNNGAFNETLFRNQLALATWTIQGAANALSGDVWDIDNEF

SMILES: CC[C@H](C)[C@@H]1NC(=O)[C@H](Cc2ccc(O)cc2)NC(=O)[C@H](Cc2ccc(O)cc2)NC(=O)[C@H](CC(N)=O)NC(=O)[C@H](Cc2c[nH]c3ccccc23)NC(=O)[C@H](C(C)C)NC(=O)[C@H](Cc2ccccc2)NC(=O)[C@H](C(C)C)NC(=O)[C@H](C)NC(=O)CSC[C@@H](C(=O)NCCOCCOCCOCCOCCOCCOCCOCCOCCOCCOCCOCCOCCC(=O)N[C@@H](CCCCNC(=O)c2ccc(-c3c4ccc(=O)cc-4oc4cc(O)ccc34)c(C(=O)O)c2)C(N)=O)NC(=O)[C@H](Cc2c[nH]cn2)N(C)C(=O)[C@H](CO)NC(=O)[C@H](CCCNC(=N)N)NC(=O)[C@H](Cc2ccccc2)NC(=O)[C@H](CCCNC(=N)N)NC(=O)[C@H](CC(=O)O)NC(=O)[C@H]([C@@H](C)CC)NC1=O [compound 149] ({CH2CO}-AVFVWNYYIIDRFRS[NMeH]C[PEG12]K(X2)-NH2; thioether N-17)
Kd [1]: 0.001 to 0.1 µM

SMILES: CC[C@H](C)[C@@H]1NC(=O)[C@H](Cc2ccc(O)cc2)NC(=O)[C@H](Cc2ccc(O)cc2)NC(=O)[C@H](CC(N)=O)NC(=O)[C@H](Cc2c[nH]c3ccccc23)N(C)C(=O)[C@H](C(C)C)NC(=O)[C@H](Cc2ccccc2)NC(=O)[C@H](C(C)C)NC(=O)[C@H](C)NC(=O)CSC[C@@H](C(=O)NCCOCCOCCOCCOCCC(=O)N[C@@H](CNC(=O)c2ccc(-c3c4ccc(=O)cc-4oc4cc(O)ccc34)c(C(=O)O)c2)C(N)=O)NC(=O)[C@H](Cc2ccc(O)cc2)N(C)C(=O)[C@H](Cc2ccc(O)cc2)NC(=O)[C@H](CCCNC(=N)N)NC(=O)[C@H](CCCNC(=N)N)NC(=O)[C@H]([C@@H](C)CC)NC1=O [compound 163]
Kd [1]: 0.001 to 0.1 µM

SMILES: CC[C@H](C)[C@@H]1NC(=O)[C@H](Cc2ccc(O)cc2)NC(=O)[C@H](Cc2ccc(O)cc2)NC(=O)[C@H](CC(N)=O)NC(=O)[C@H](Cc2c[nH]c3ccccc23)NC(=O)[C@H](C(C)C)NC(=O)[C@H](Cc2ccccc2)NC(=O)[C@H](C(C)C)NC(=O)[C@H](C)NC(=O)CSC[C@@H](C(=O)NCCOCCOCCOCCOCCOCCOCCOCCOCCOCCOCCOCCOCCC(=O)N[C@@H](CCCCNC(=O)c2ccc(-c3c4ccc(=O)cc-4oc4cc(O)ccc34)c(C(=O)O)c2)C(N)=O)NC(=O)[C@H](CC(N)=O)NC(=O)[C@@H]2CCCN2C(=O)[C@H](C(C)C)NC(=O)[C@H](CC(N)=O)NC(=O)[C@H](CCCNC(=N)N)NC(=O)CNC(=O)[C@H](C(C)C)NC1=O [compound 152] ({CH2CO}-AVFVWNYYIVGRNVPNC[PEG12]K(X2)-NH2; thioether N-17)
Kd [1]: < 0.001 µM

SMILES: CC[C@H](C)[C@@H]1NC(=O)[C@H](Cc2ccc(OC)cc2)NC(=O)[C@H](Cc2ccc(O)cc2)NC(=O)[C@H](CC(N)=O)NC(=O)[C@H](Cc2c[nH]c3ccccc23)N(C)C(=O)[C@H](C(C)C)NC(=O)[C@H](Cc2cccc(Cl)c2)N(C)C(=O)[C@H](C(C)C)NC(=O)[C@H](C)NC(=O)CSC[C@@H](C(=O)NCC(=O)NCC(=O)NCC(=O)NCC(=O)N[C@@H](CO)C(=O)N[C@@H](CO)C(=O)N[C@@H](CS)C(N)=O)NC(=O)[C@H](Cc2ccc(O)cc2)N(C)C(=O)[C@H](Cc2ccccc2)NC(=O)[C@@H](CCCNC(=N)N)NC(=O)[C@H](CCCNC(=N)N)NC(=O)[C@H](CN)NC1=O [compound 343]
Kd: 0.001 to 0.1 µM

SMILES: CC[C@H](C)[C@@H]1NC(=O)[C@H](Cc2ccc(O)cc2)NC(=O)[C@H](Cc2ccc(O)cc2)NC(=O)[C@H](CC(N)=O)NC(=O)[C@H](Cc2c[nH]c3ccccc23)NC(=O)[C@H](C(C)C)NC(=O)[C@H](Cc2ccccc2)N(C)C(=O)[C@H](C(C)C)NC(=O)[C@H](C)NC(=O)CSC[C@@H](C(=O)NCCOCCOCCOCCOCCOCCOCCOCCOCCOCCOCCOCCOCCC(N)=O)NC(=O)[C@H](CCCNC(=N)N)NC(=O)[C@H](Cc2ccc(O)cc2)NC(=O)[C@H](CCCNC(=N)N)NC(=O)[C@H](CCCNC(=N)N)NC(=O)[C@H]([C@@H](C)CC)NC1=O [compound 127]
Kd (SPR, hTfR No. 894 variants with PEG12c linker (Table 2), read-out: KD): 0.001 to 0.1 µM

Continued, values first:

Kd (hTfR binding by SPR, hTfR No. 894 variant peptides, linker-added peptides and payload conjugates (Table 2), read-out: KD value obtained from the SPR measurement): 0.001 to 0.1 µM
SMILES: CC[C@H](C)[C@@H]1NC(=O)[C@H](Cc2ccc(O)cc2)NC(=O)[C@H](Cc2ccc(O)cc2)NC(=O)[C@H](CC(N)=O)NC(=O)[C@H](Cc2c[nH]c3ccccc23)NC(=O)[C@H](C(C)C)NC(=O)[C@H](Cc2ccccc2)N(C)C(=O)[C@H](C(C)C)NC(=O)[C@H](C)NC(=O)CSC[C@@H](C(=O)NCC(=O)NCC(=O)N[C@@H](CCC(=O)O)C(=O)N[C@@H](CO)C(=O)N[C@@H](CCC(=O)O)C(=O)N[C@@H](CO)C(=O)N[C@@H](CCCCNC(=O)C2CCC(CN3C(=O)C=CC3=O)CC2)C(N)=O)NC(=O)[C@H](Cc2ccc(O)cc2)N(C)C(=O)[C@H](Cc2ccc(O)cc2)NC(=O)[C@H](CCCNC(=N)N)NC(=O)[C@H](CCCNC(=N)N)NC(=O)[C@H]([C@@H](C)CC)NC1=O (stereo partly shown) [compound 192]

Kd [2]: 0.001 to 0.1 µM
SMILES: CC[C@H](C)[C@@H]1NC(=O)[C@H](Cc2ccc(O)cc2)NC(=O)[C@H](Cc2ccc(O)cc2)NC(=O)[C@H](CC(N)=O)NC(=O)[C@H](Cc2c[nH]c3ccccc23)N(C)C(=O)[C@H](C(C)C)NC(=O)[C@H](Cc2cccc(Cl)c2)N(C)C(=O)[C@@H]2CCC(=O)N3CCC[C@@H]3C(=O)NCCCC[C@H](NC(=O)[C@H]([C@@H](C)CC)NC1=O)C(=O)N[C@@H](CCCNC(=N)N)C(=O)N[C@@H](Cc1ccc(O)cc1)C(=O)N(C)[C@@H](Cc1ccc(O)cc1)C(=O)N[C@H](C(N)=O)CSCC(=O)N[C@@H](C)C(=O)N2 [compound 416]

Kd (binding to hTfR by SPR, Table 2 peptides, read-out: KD value (SPR) class): 0.001 to 0.1 µM
SMILES: CC[C@H](C)[C@@H]1NC(=O)[C@H](Cc2ccc(O)cc2)NC(=O)[C@H](Cc2ccc(O)cc2)NC(=O)[C@H](CC(N)=O)NC(=O)[C@H](Cc2c[nH]c3ccccc23)NC(=O)[C@H](C(C)C)NC(=O)[C@H](Cc2ccccc2)NC(=O)[C@H](C(C)C)NC(=O)[C@H](C)NC(=O)CSC[C@@H](C(N)=O)NC(=O)[C@H](Cc2ccc(O)cc2)N(C)C(=O)[C@H](Cc2ccc(O)cc2)NC(=O)[C@H](CCCNC(=N)N)NC(=O)[C@H](CCCNC(=N)N)NC(=O)[C@H](CCCNC(=N)N)NC1=O [compound 248]

Kd [2]: 0.001 to 0.1 µM
SMILES: CC[C@H](C)[C@@H]1NC(=O)[C@@H]2CCCCNC(=O)[C@H]3CCCN3C(=O)C[C@H](NC(=O)[C@H](C(C)C)NC(=O)[C@H](C)NC(=O)CSC[C@@H](C(N)=O)NC(=O)[C@H](Cc3ccc(O)cc3)N(C)C(=O)[C@H](Cc3ccc(O)cc3)NC(=O)[C@H](CCCNC(=N)N)NC(=O)[C@H](CCCNC(=N)N)NC(=O)[C@H]([C@@H](C)CC)NC1=O)C(=O)N[C@@H](C(C)C)C(=O)N(C)[C@@H](Cc1c[nH]c3ccccc13)C(=O)N[C@@H](CC(N)=O)C(=O)N[C@@H](Cc1ccc(O)cc1)C(=O)N2 [compound 414] ({CH2CO}-AVDV[NMeW]NYKIIRRY[NMeY]C-NH2; linker 3-8 via dP; thioether N-15)

Kd (surface plasmon resonance, peptide vs hTfR, read-out: KD value, hTfR binding by SPR (class symbol)): 0.1 to 1 µM
SMILES: CC[C@H](C)[C@@H]1NC(=O)[C@H](Cc2ccc(OC)cc2)NC(=O)[C@H](Cc2ccc(O)cc2)NC(=O)[C@H](CC(N)=O)NC(=O)[C@H](Cc2cn(CCO)c3ccccc23)NC(=O)[C@H](C(C)C)NC(=O)[C@H](Cc2cccc(Cl)c2)N(C)C(=O)[C@H](C(C)C)NC(=O)[C@H](C)NC(=O)CSC[C@@H](C(N)=O)NC(=O)[C@H](Cc2ccc(O)cc2)N(C)C(=O)[C@H](Cc2ccccc2)NC(=O)[C@@H](CCCNC(=N)N)NC(=O)C(C)(C)NC(=O)[C@H]([C@@H](C)CC)NC1=O [compound 305] ({CH2CO}-AV[NMePhe(3-Cl)]V[X5]NYY(Me)II[Aib][dR]F[NMeY]C-NH2; thioether N-15)
